Reference: patent US20030105034A1, “Pyridine carboxy derivatives and an aminosugar” (Astion Deveopment A/S, priority 2001, published 2003)
Entries after “also recorded” stand apart in the source; their conditions may differ. Marks after values point to notes of the source that are not given here.

Experiments:
[1] = test system: tetradecanoyl phorbol acetate (TPA) induced ear inflammation; assay: TPA induced ear inflammation test in the mouse, Compound 122 compared to its components (Example 241); format: in vivo; conditions: for Inhibition of ear swelling (%): versus vehicle group A, 3 h after TPA; for inhibition of ear swelling, result in words: Compound 122 7.0 mg, niacinamide 3.67 mg, N-acetylglucosamine 3.33 mg per application
Description: (§1) The objective of this study is to assess the effect of Compound 122 as compared to its components in the tetradecanoyl phorbol acetate (TPA) induced ear inflammation test in the mouse, a commonly employed method for screening and evaluation of antiinflammatory drugs. Locoid® cutaneous solution (0.1% hydrocortisone 17-butyrate) is used as a positive control.
The test articles are the complex of the invention prepared according to example 118 (Compound 122 in the following) and its components niacinamide and N-acetylglucosamine, all obtained from Astion A/S, Denmark.
The study is performed in female SPF NMRI mice of the stock Bom:NMRI from M & B A/S, Denmark. At start of the acclimatisation period the mice is in the weight range of 18-20 g. An acclimatisation period of 7 days is allowed.
On day 0 the test substances are applied in 20 μl volumes to the inner surface of the right ear 20 minutes before and again 20 minutes after TPA treatment. All groups are treated with 20 μl acetone on the left ear and with 20 μl TPA, 400 μg/ml, on the right ear.
Three hours after the TPA application the mice are sacrificed, the ears cut off and weighed.
The amount of niacinamide and N-acetylglucosamine administered to groups C and D corresponds exactly to the amount of the two substances present in Compound 122 administered to group B.
(§2) Mean weights and standard deviations are calculated. Percent inhibition of the oedema compared with group A is calculated for the groups B-E. Weights of the left ears are used to assess the comparability of the groups and to calculate differences in weight between left and right ear.
Ear swelling is determined as the difference between the weight of right and left ear. The following inhibition of ear swelling is observed in groups B-E: […]

[2] = test system: tetradecanoyl phorbol acetate (TPA) induced ear inflammation; assay: TPA induced ear inflammation test in the mouse, two doses of two complexes (Example 239); format: in vivo; conditions: Locoid solution 0.1%, 0.02 mg per application; positive control; ears weighed 3 h after TPA
Description: as §1, with “two doses of two chemical complexes of the invention topically administered” for “Compound 122 as compared to its components”
At start of the acclimatisation period the mice is in the weight range of 18-20 g. An acclimatisation period of 7 days is allowed.
On the day of arrival the animals is randomly allocated to 7 groups, each of 9 mice.
The test substances are applied in 20 μl volumes to the inner surface of the right ear on day 0. 20 minutes before and again 20 minutes after TPA treatment. All groups is treated with 20 μl acetone on the left ear and with 20 μl TPA, 400 μg/ml, on the right ear.
as §2, with “Three hours after the TPA application the mice are sacrificed, the ears cut off and weighed. Mean” for “Mean”, “group 1” for “group A”, “groups 2-7.” for “groups B-E.”, “ears is” for “ears are”

| SMILES | Inhibition of ear swelling (%) ([1]; 3.33 mg per application, group D) | inhibition of ear swelling, result in words [1] | Inhibition of ear swelling (%) ([1]; 0.02 mg per application, group E, positive control) | inhibition of ear swelling [2] [%] | Inhibition of ear swelling (%) ([1]; 3.67 mg per application, group C) |
| --- | --- | --- | --- | --- | --- |
| CC(=O)N[C@H]1C(O)O[C@H](CO)[C@@H](O)[C@@H]1O (stereo partly drawn) [N-acetylglucosamine] | 31* % | only displayed a modest inhibition; also recorded: showed much lesser inhibition of ear swelling | – | – | – |
| CCCC(=O)O[C@]1(C(=O)CO)CC[C@H]2[C@@H]3CCC4=CC(=O)CC[C@]4(C)[C@H]3[C@@H](O)C[C@@]21C [Hydrocortisone 17-butyrate, hydrocortisone 17-butyrate] | – | – | 89*** % | 90 | – |
| NC(=O)c1cccnc1 [Niacinamide] | – | only displayed a modest inhibition; also recorded: showed much lesser inhibition of ear swelling | – | – | 31** % |
